Measurements from US7504400B2, “MTP inhibiting aryl piperydines or piperazines substituted with 5-membered heterocycles” (Janssen Pharmaceutica N.V., priority 2004, dated 2009).
Structures can show the parent of a compound that is named as a salt.

Tests used:
[1] = tested on: Secretion of ApoB; experiment: Quantification of the secretion of ApoB in HepG2 cells; type: cell-based; settings: Homo sapiens, HepG2, 24 h, 24 hours of incubation with test compound, immunoprecipitation of apoB from medium, read-out: pIC50 value (=-log IC50 value), secretion of ApoB (converted)
Summary of the method: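 At 70% confluency, HepG2 cells in MEM with 10% FCS received compound or DMSO carrier (0.4% final) for 24 h. Secreted apoB in cleared medium immunoprecipitated with sheep anti-apoB then rabbit anti-sheep antibody (24 h each, 8° C); pellet radioactivity counted by liquid scintillation; IC50 expressed as pIC50.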

melting point	IC50 [1]	Structure (SMILES)
198 to 200 °C	31.6 to 316 nM	CC(C)n1ncn(-c2ccc(N3CCN(C(C(=O)Nc4ccc5c(c4)CCC5)c4cccnc4)CC3)cc2)c1=O (stereo not drawn) [Compound 209]
142 to 143 °C	–	CCOC(=O)C(c1cccnc1)N1CCN(c2ccc(-n3cnn(C(C)C)c3=O)cc2)CC1 (stereo not drawn) [Compound 302]
165 °C	–	CCCN(CCC)C(=O)C(CCN1CCN(c2ccc(-n3cnn(C(C)C)c3=O)cc2)CC1)c1ccccc1 (stereo not drawn) (as salt: salt) [Compound 2]
–	316 to 3160 nM	CCOC(=O)c1cc(CNC(=O)C(Cc2ccccc2)C2CCN(c3ccc(-n4cnn(C(C)C)c4=O)cc3)CC2)ccc1C (stereo not drawn) [Compound 384]
–	31.6 to 316 nM	CCCNC(=O)C(c1ccccc1)N1CCN(c2ccc(-n3cnn(C(C)C)c3=O)cc2)CC1 (stereo not drawn) [Compound 164]
